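Protocol summary: plate cells (96-well), add compound at 5 concentrations, incubate 48 h, interpolate endpoints linearly. At the GI50, growth is halved. TGI: total growth inhibition.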
Assays:
Experiment in all cases: NCI-60 cell line screen, 48 h
HT29 colon = test system: HT29 colon
SNB-19 CNS = test system: SNB-19 CNS
HCC-2998 colon = test system: HCC-2998 colon
HOP-92 NSCLC = test system: HOP-92 NSCLC
OVCAR-8 ovarian = test system: OVCAR-8 ovarian
OVCAR-3 ovarian = test system: OVCAR-3 ovarian
TK-10 renal = test system: TK-10 renal
A549 NSCLC = test system: A549 NSCLC
PC-3 prostate = test system: PC-3 prostate
HL-60(TB) leukemia = test system: HL-60(TB) leukemia
SF-295 CNS = test system: SF-295 CNS
K-562 leukemia = test system: K-562 leukemia
HCT-15 colon = test system: HCT-15 colon
BT-549 breast = test system: BT-549 breast
MALME-3M melanoma = test system: MALME-3M melanoma
IGROV1 ovarian = test system: IGROV1 ovarian
COLO 205 colon = test system: COLO 205 colon
ACHN renal = test system: ACHN renal
CAKI-1 renal = test system: CAKI-1 renal
NCI-H460 lung = test system: NCI-H460 lung
SN12C renal = test system: SN12C renal
SNB-75 CNS = test system: SNB-75 CNS
OVCAR-4 ovarian = test system: OVCAR-4 ovarian
MDA-MB-435 = test system: MDA-MB-435
SF-539 CNS = test system: SF-539 CNS
LOX IMVI melanoma = test system: LOX IMVI melanoma
UACC-62 melanoma = test system: UACC-62 melanoma
SK-MEL-2 melanoma = test system: SK-MEL-2 melanoma
A498 renal = test system: A498 renal
CCRF-CEM leukemia = test system: CCRF-CEM leukemia
HS 578T breast = test system: HS 578T breast
786-0 renal = test system: 786-0 renal
SK-MEL-28 melanoma = test system: SK-MEL-28 melanoma
U251 CNS = test system: U251 CNS
T-47D breast = test system: T-47D breast
NCI-H23 lung = test system: NCI-H23 lung
M14 melanoma = test system: M14 melanoma
SR leukemia = test system: SR leukemia
NCI/ADR-RES ovarian = test system: NCI/ADR-RES ovarian
RPMI-8226 leukemia = test system: RPMI-8226 leukemia
RXF 393 renal = test system: RXF 393 renal
SK-MEL-5 melanoma = test system: SK-MEL-5 melanoma
UACC-257 melanoma = test system: UACC-257 melanoma
NCI-H226 lung = test system: NCI-H226 lung
KM12 colon = test system: KM12 colon
OVCAR-5 ovarian = test system: OVCAR-5 ovarian
MDA-MB-231 breast = test system: MDA-MB-231 breast
SW-620 colon = test system: SW-620 colon
NCI-H522 lung = test system: NCI-H522 lung
MOLT-4 leukemia = test system: MOLT-4 leukemia
UO-31 renal = test system: UO-31 renal
HOP-62 NSCLC = test system: HOP-62 NSCLC
SF-268 CNS = test system: SF-268 CNS
MCF7 breast = test system: MCF7 breast
SK-OV-3 ovarian = test system: SK-OV-3 ovarian
DU-145 prostate = test system: DU-145 prostate
HCT-116 colon = test system: HCT-116 colon

CCOC(=O)Nc1nc2ccc(Br)cc2s1
GI50 (HT29 colon): > 50 µM | TGI (HT29 colon): > 50 µM | GI50 (SNB-19 CNS): > 50 µM | TGI (SNB-19 CNS): > 50 µM | GI50 (HCC-2998 colon): > 50 µM | TGI (HCC-2998 colon): > 50 µM | GI50 (HOP-92 NSCLC): > 50 µM | TGI (HOP-92 NSCLC): > 50 µM | GI50 (OVCAR-8 ovarian): > 50 µM | TGI (OVCAR-8 ovarian): > 50 µM | GI50 (OVCAR-3 ovarian): > 50 µM | TGI (OVCAR-3 ovarian): > 50 µM | GI50 (TK-10 renal): > 50 µM | TGI (TK-10 renal): > 50 µM | GI50 (A549 NSCLC): > 50 µM | TGI (A549 NSCLC): > 50 µM | GI50 (PC-3 prostate): > 50 µM | TGI (PC-3 prostate): > 50 µM | GI50 (HL-60(TB) leukemia): > 50 µM | TGI (HL-60(TB) leukemia): > 50 µM | GI50 (SF-295 CNS): > 50 µM | TGI (SF-295 CNS): > 50 µM | GI50 (K-562 leukemia): > 50 µM | TGI (K-562 leukemia): > 50 µM | GI50 (HCT-15 colon): > 50 µM | TGI (HCT-15 colon): > 50 µM | GI50 (BT-549 breast): > 50 µM | TGI (BT-549 breast): > 50 µM | GI50 (MALME-3M melanoma): > 50 µM | TGI (MALME-3M melanoma): > 50 µM | GI50 (IGROV1 ovarian): > 50 µM | TGI (IGROV1 ovarian): > 50 µM | GI50 (COLO 205 colon): > 50 µM | TGI (COLO 205 colon): > 50 µM | GI50 (ACHN renal): > 50 µM | TGI (ACHN renal): > 50 µM | GI50 (CAKI-1 renal): > 50 µM | TGI (CAKI-1 renal): > 50 µM | GI50 (NCI-H460 lung): > 50 µM | TGI (NCI-H460 lung): > 50 µM | GI50 (SN12C renal): > 50 µM | TGI (SN12C renal): > 50 µM | GI50 (SNB-75 CNS): > 50 µM | TGI (SNB-75 CNS): > 50 µM | GI50 (OVCAR-4 ovarian): > 50 µM | TGI (OVCAR-4 ovarian): > 50 µM | GI50 (MDA-MB-435): > 50 µM | TGI (MDA-MB-435): > 50 µM | GI50 (SF-539 CNS): > 50 µM | TGI (SF-539 CNS): > 50 µM | GI50 (LOX IMVI melanoma): > 50 µM | TGI (LOX IMVI melanoma): > 50 µM | GI50 (UACC-62 melanoma): > 50 µM | TGI (UACC-62 melanoma): > 50 µM | GI50 (SK-MEL-2 melanoma): > 50 µM | TGI (SK-MEL-2 melanoma): > 50 µM | GI50 (A498 renal): > 50 µM | TGI (A498 renal): > 50 µM | GI50 (CCRF-CEM leukemia): > 50 µM | TGI (CCRF-CEM leukemia): > 50 µM | GI50 (HS 578T breast): > 50 µM | TGI (HS 578T breast): > 50 µM | GI50 (786-0 renal): > 50 µM | TGI (786-0 renal): > 50 µM | GI50 (SK-MEL-28 melanoma): > 50 µM | TGI (SK-MEL-28 melanoma): > 50 µM | GI50 (U251 CNS): > 50 µM | TGI (U251 CNS): > 50 µM | GI50 (T-47D breast): > 50 µM | TGI (T-47D breast): > 50 µM | GI50 (NCI-H23 lung): > 50 µM | TGI (NCI-H23 lung): > 50 µM | GI50 (M14 melanoma): > 50 µM | TGI (M14 melanoma): > 50 µM | GI50 (SR leukemia): > 50 µM | TGI (SR leukemia): > 50 µM | GI50 (NCI/ADR-RES ovarian): > 50 µM | TGI (NCI/ADR-RES ovarian): > 50 µM | GI50 (RPMI-8226 leukemia): > 50 µM | TGI (RPMI-8226 leukemia): > 50 µM | GI50 (RXF 393 renal): > 50 µM | TGI (RXF 393 renal): > 50 µM | GI50 (SK-MEL-5 melanoma): > 50 µM | TGI (SK-MEL-5 melanoma): > 50 µM | GI50 (UACC-257 melanoma): > 50 µM | TGI (UACC-257 melanoma): > 50 µM | GI50 (NCI-H226 lung): > 50 µM | TGI (NCI-H226 lung): > 50 µM | GI50 (KM12 colon): > 50 µM | TGI (KM12 colon): > 50 µM | GI50 (OVCAR-5 ovarian): > 50 µM | TGI (OVCAR-5 ovarian): > 50 µM | GI50 (MDA-MB-231 breast): > 50 µM | TGI (MDA-MB-231 breast): > 50 µM | GI50 (SW-620 colon): > 50 µM | TGI (SW-620 colon): > 50 µM | GI50 (NCI-H522 lung): > 50 µM | TGI (NCI-H522 lung): > 50 µM | GI50 (MOLT-4 leukemia): > 50 µM | TGI (MOLT-4 leukemia): > 50 µM | GI50 (UO-31 renal): > 50 µM | TGI (UO-31 renal): > 50 µM | GI50 (HOP-62 NSCLC): > 50 µM | TGI (HOP-62 NSCLC): > 50 µM | GI50 (SF-268 CNS): > 50 µM | TGI (SF-268 CNS): > 50 µM | GI50 (MCF7 breast): > 50 µM | TGI (MCF7 breast): > 50 µM | GI50 (SK-OV-3 ovarian): > 50 µM | TGI (SK-OV-3 ovarian): > 50 µM | GI50 (DU-145 prostate): > 50 µM | TGI (DU-145 prostate): > 50 µM | GI50 (HCT-116 colon): > 50 µM | TGI (HCT-116 colon): > 50 µM
